Laboratory results taken from the CheMixHub viscosity set.

Test: xn = mol fraction of the nth substance listed

CCOC(=O)c1ccccc1 + CC(C)O
viscosity [mPa·s], 101 kPa
Settings | x1 = 0.056 | x1 = 0.1177 | x1 = 0.1862 | x1 = 0.2624 | x1 = 0.348 | x1 = 0.4446 | x1 = 0.546 | x1 = 0.681 | x1 = 0.8277
303.15 K | 1.659 | 1.664 | 1.671 | 1.678 | 1.686 | 1.695 | 1.706 | 1.719 | 1.733
308.15 K | 1.501 | 1.508 | 1.515 | 1.525 | 1.532 | 1.541 | 1.551 | 1.563 | 1.577
313.15 K | 1.327 | 1.337 | 1.345 | 1.356 | 1.367 | 1.38 | 1.394 | 1.409 | 1.426
318.15 K | 1.192 | 1.203 | 1.213 | 1.225 | 1.239 | 1.254 | 1.27 | 1.291 | 1.313
323.15 K | 1.074 | 1.085 | 1.099 | 1.114 | 1.13 | 1.15 | 1.167 | 1.194 | 1.222

CCCC[N+]1(C)CCCC1.N#C[S-] + O
Settings | viscosity [mPa·s]
298.15 K, 101 kPa, x1 = 0.9147 | 91.83

C1=CCCCC1 + C1CCCCC1
303.15 K, 101 kPa
Settings | viscosity [mPa·s]
x1 = 0.1133 | 0.772
x1 = 0.2435 | 0.745
x1 = 0.3293 | 0.725
x1 = 0.3919 | 0.72
x1 = 0.4866 | 0.684
x1 = 0.582 | 0.678
x1 = 0.7181 | 0.654
x1 = 0.8663 | 0.62

CCOC(=O)c1ccccc1 + COc1ccccc1
viscosity [mPa·s], 101 kPa
Settings | x1 = 0.0786 | x1 = 0.1616 | x1 = 0.2448 | x1 = 0.3356 | x1 = 0.4336 | x1 = 0.5357 | x1 = 0.6386 | x1 = 0.7505 | x1 = 0.8709
303.15 K | 0.973 | 1.026 | 1.085 | 1.156 | 1.229 | 1.323 | 1.416 | 1.521 | 1.631
308.15 K | 0.896 | 0.949 | 1.007 | 1.071 | 1.143 | 1.224 | 1.311 | 1.404 | 1.504
313.15 K | 0.805 | 0.856 | 0.908 | 0.963 | 1.026 | 1.101 | 1.174 | 1.256 | 1.342

CC1CCCCC1 + CCCCCCO
303.15 K, 101.33 kPa
Settings | viscosity [mPa·s]
x1 = 0.1015 | 3.051
x1 = 0.2596 | 2.193
x1 = 0.4197 | 1.536
x1 = 0.582 | 1.11
x1 = 0.7447 | 0.852
x1 = 0.8989 | 0.693
x2 = 0.1112 | 0.7521
x2 = 0.1986 | 0.8469
x2 = 0.3135 | 1.009
x2 = 0.4018 | 1.148
x2 = 0.4981 | 1.351
x2 = 0.5978 | 1.595
x2 = 0.7018 | 1.908
x2 = 0.8123 | 2.408
x2 = 0.8923 | 2.874

N#CCc1ccccc1 + ClC=C(Cl)Cl
Settings | viscosity [mPa·s]
303.15 K, 101 kPa, x1 = 0.819 | 1.455

CCOC(=O)c1ccccc1 + Cc1ccccc1Cl
viscosity [mPa·s], 101 kPa
Settings | 303.15 K | 313.15 K
x1 = 0.0262 | 0.899 | 0.753
x1 = 0.0785 | 0.926 | 0.772
x1 = 0.1304 | 0.952 | 0.793
x1 = 0.2081 | 0.996 | 0.826
x1 = 0.2594 | 1.022 | 0.846
x1 = 0.3343 | 1.067 | 0.881
x1 = 0.3851 | 1.099 | 0.906
x1 = 0.4613 | 1.149 | 0.945
x1 = 0.5356 | 1.208 | 0.99
x1 = 0.6108 | 1.274 | 1.041
x1 = 0.709 | 1.375 | 1.12
x1 = 0.8085 | 1.497 | 1.215
x1 = 0.9045 | 1.635 | 1.323

CCOC(=O)c1ccccc1 + COCCO
viscosity [mPa·s], 101 kPa
Settings | x2 = 0.1045 | x2 = 0.199 | x2 = 0.2979 | x2 = 0.4016 | x2 = 0.5007 | x2 = 0.6025 | x2 = 0.6973 | x2 = 0.7982 | x2 = 0.8977
298.15 K | 1.883 | 1.824 | 1.803 | 1.757 | 1.774 | 1.752 | 1.773 | 1.761 | 1.783
303.15 K | 1.703 | 1.65 | 1.631 | 1.587 | 1.598 | 1.581 | 1.592 | 1.581 | 1.602
308.15 K | 1.55 | 1.501 | 1.48 | 1.441 | 1.448 | 1.431 | 1.439 | 1.431 | 1.444

CCCNCCC + CCCO
viscosity [mPa·s], 101.33 kPa
Settings | x1 = 0.1059 | x1 = 0.2109 | x1 = 0.3116 | x1 = 0.401 | x1 = 0.513 | x1 = 0.5913 | x1 = 0.7036 | x1 = 0.8073 | x1 = 0.885
303.15 K | 1.601 | 1.425 | 1.268 | 1.138 | 0.994 | 0.8936 | 0.7675 | 0.6649 | 0.5972
313.15 K | 1.261 | 1.126 | 1.009 | 0.8968 | 0.7829 | 0.7121 | 0.6195 | 0.5442 | 0.4899
